Values after ≈ are worked out from the molar mass of the structure shown.

Series [1] is described as follows: Solubility of the compound in water measured after 20 mins by HPLC analysis. Type of series: physicochemical.
The nature of series [2]: Metabolic Stability in pooled human hepatocytes assessed as parent compound remaining after 30 mins. The class given is ADME, cell-based, Hepatocyte. The note with it: read-out: Stabilty.
Series [3] can be described thus: Metabolic stability in pooled mouse hepatocytes assessed as parent compound remaining after 30 mins. The class given is ADME, cell-based, Hepatocyte. The following applies: read-out: Stabilty.
The subject of series [4] is Mycobacterium tuberculosis. Nature of the series: Antimycobacterial activity against Mycobacterium tuberculosis H37Rv assessed as bacterial growth inhibition incubated for 7 days by MABA assay. The class given is functional. The following applies: 168 h, time 7 day.
The nature of series [5]: Toxicity in BALB/c mouse infected with Mycobacterium tuberculosis H37Rv assessed as body weight at 25 mg/kg, po via gavage administered for 3 weeks starting from day 10 post infection and administered 5 times a week (reference value: 24.59 +/- 0.61 g). The note with it: in vivo, 504 h. The class given is organism-based.
Series [6] relates to Mycobacterium tuberculosis. Nature of the series: Antimycobacterial activity against Mycobacterium tuberculosis H37Rv infected in BALB/c mouse model of acute tuberculosis infection assessed as log change in bacterial burden in mouse lung at 25 mg/kg, po via gavage administered for 3 weeks starting from day 10 post infection and administered 5 times a week (reference value: 4.94=+/-0.06 1og10CFU). The class given is functional.

The nature of series [7]: Toxicity in BALB/c mouse infected with Mycobacterium tuberculosis H37Rv assessed as body weight at 100 mg/kg, po via gavage administered for 3 weeks starting from day 10 post infection and administered 5 times a week (reference value: 24.59 +/- 0.61 g). Type of series: organism-based. The following applies: in vivo, 504 h.
Series [8] has as its system Mycobacterium tuberculosis. Nature of the series: Antimycobacterial activity against Mycobacterium tuberculosis H37Rv infected in BALB/c mouse model of acute tuberculosis infection assessed as log change in bacterial burden in mouse lung at 100 mg/kg, po via gavage administered for 3 weeks starting from day 10 post infection and administered 5 times a week (reference value: 4.94 +/-0.06 1og10CFU). The class given is functional.

The term solubility denotes the dissolved amount per volume that the medium holds. A lower solubility goes with a poorly soluble substance. For orientation: MIC means the lowest concentration found to suppress growth. Take `NC1CCC(CN2CCN(c3cc(=O)c4cc(C(F)(F)F)cc([N+](=O)[O-])c4s3)CC2)CC1` (configuration not stated): the solubility at 20 min in series [1] was determined as 43.9 µg/mL (≈ 93.3 µM). Also, the remaining at 0.5 h in series [2] worked out at 83.6%; in series [3], 107%. Also, the MIC in series [4] came to 0.49 µg/mL (≈ 1.04 µM).

For `NNC(=O)c1ccncc1` [ISONIAZID], the Activity in series [5] came out at 24.66 g; in series [6] it was 130 log10CFU. The MIC in series [4] was determined as 0.039 µg/mL (≈ 0.284 µM).

In turn, `O=c1cc(N2CCN(CC3CCCCC3)CC2)sc2c([N+](=O)[O-])cc(C(F)(F)F)cc12` displayed a solubility at 20 min in series [1] of less than 0.1 µg/mL. In addition, the values for the remaining at 0.5 h in series [2] and in series [3] were 82.4% and 80.6%, respectively. Moreover, the MIC in series [4] is less than 0.016 µg/mL.

Regarding `O=c1cc(N2CCN(CC3CCC(O)CC3)CC2)sc2c([N+](=O)[O-])cc(C(F)(F)F)cc12` (configuration not stated), the concentration in solution in series [1] (solubility at 20 min) came to 8.3 µg/mL (≈ 17.6 µM). In addition, the remaining at 0.5 h in series [2] worked out at 72.7%; in series [3] it was 51.2%. Further, the Activity in series [7] came out at 24.75 g; in series [8], 4.06 log10CFU. In series [4], the MIC is 0.069 µg/mL (≈ 0.146 µM).
